This is an account of results in PubChem BioAssay AID463203 (Broad Institute, 2010).

A word on the AC50: it is the concentration at which the activity in the assay is half-maximal.

In this experiment the target is Glycogen synthase kinase-3 alpha (Homo sapiens) (UniProt P49840). Description: concentration-response blocking of human GSK3A – biochemical, luminescence, cell-free homogeneous, retest, dose response (AID 463203). Particulars: GSK-3 alpha enzyme, ADP-Glo luminescence, 60 min. (In general: ADP-Glo turns the ADP formed in a reaction into a luminescent signal.)

Calls of active or inactive are those of the source.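 Rule for the calls: active = more than half of replicate measurements showing over 20% loss of kinase signal relative to plate controls; inconclusive = some but at most half of replicates over 20% loss; inactive = no replicate over 20% signal loss.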 Some results are limits rather than exact numbers.

Chain of Glycogen synthase kinase-3 alpha (Homo sapiens) (P49840 whole entry, looked up): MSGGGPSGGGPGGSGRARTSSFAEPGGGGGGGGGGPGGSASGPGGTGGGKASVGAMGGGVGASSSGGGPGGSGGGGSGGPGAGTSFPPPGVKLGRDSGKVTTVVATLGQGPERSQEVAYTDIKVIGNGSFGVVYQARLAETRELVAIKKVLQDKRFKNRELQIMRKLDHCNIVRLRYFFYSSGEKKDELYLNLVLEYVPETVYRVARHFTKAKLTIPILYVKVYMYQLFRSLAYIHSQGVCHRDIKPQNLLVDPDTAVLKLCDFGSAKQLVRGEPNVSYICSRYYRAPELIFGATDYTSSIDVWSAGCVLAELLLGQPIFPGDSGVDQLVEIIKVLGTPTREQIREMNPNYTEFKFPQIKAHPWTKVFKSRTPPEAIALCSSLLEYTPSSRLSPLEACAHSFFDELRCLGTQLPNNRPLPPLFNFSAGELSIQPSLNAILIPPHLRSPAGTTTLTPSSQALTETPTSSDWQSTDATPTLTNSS

As for `Cc1noc(C)c1COc1ccc(C(=O)OCC(=O)Nc2c(C)n(C)n(-c3ccccc3)c2=O)cc1`, the AC50 was > 30 µM (inactive).

`C/C(=N\NC(=O)c1nnn(-c2nonc2N)c1CN(C)c1ccccc1)c1ccc(O)cc1`: the AC50 is > 30 µM (inactive).

Turning to `O=C(Nc1ccccc1N1CCOCC1)c1cnccn1`, the AC50 was 28.6 µM.

Consider `Cc1ccc(S(=O)(=O)N(CC(O)CN2CCCCC2)c2ccccc2)cc1` (configuration not stated), for which the AC50 is > 30 µM (inactive).

In the case of `O=C(COc1ccc(-n2cnnn2)cc1)Nc1ccc(F)c(F)c1F`, the AC50 is > 30 µM (inactive).

With `CCOC(=O)c1cc(-c2ccccc2)n(CCC(=O)NC(C)CC)c1C` (configuration not stated), the AC50 was > 30 µM (inactive).

Consider `COC1(OC)N=C(NC(=O)Nc2ccccc2)C2(C#N)C(c3ccccc3)C12C#N` (configuration not stated), for which the AC50 is > 30 µM (inactive).

Regarding `CCN1C(=S)SC(=O)C1=C1C=C(C)N(Cc2ccco2)C(C)=C1`, the AC50 is > 30 µM (inactive).

Regarding `Cc1cccc(Nc2nc(C)cc(C)n2)c1`, the AC50 was > 30 µM (inactive).

Regarding `O=C(O)Cn1cc(/C=N/NC(=O)c2cc3cc(Br)ccc3o2)c2ccccc21`, the concentration at half-maximal activity (AC50) is 6.05 µM.

`Cn1cnnc1Sc1ccc(CN2CCN(C3CCCC3)C(CCO)C2)o1` (configuration not stated): the AC50 is > 30 µM (inactive).

Consider `CCN(CC)S(=O)(=O)c1ccc2oc(C(=O)N3CCOCC3)c(C)c2c1`, for which the AC50 was > 30 µM (inactive).

As to `O=c1[nH]c(=S)n(CCC2=CCCCC2)c(O)c1C=NCCCn1ccnc1`, the half-maximal activity concentration (AC50) is 14.3 µM.

On to `CC(=O)Nc1n[nH]c(-c2ccc(C)cc2)c1C`, for which the AC50 was > 30 µM (inactive).

In the case of `CCN1CCN(c2nc(N(C)c3ccccc3)nc(N)c2[N+](=O)[O-])CC1`, the AC50 is > 30 µM (inactive).

`O=[N+]([O-])c1ccc(-c2nnc(-c3ccccc3)c(NCCCO)n2)cc1`: the AC50 was > 30 µM (inactive).

Regarding `Cc1ccc(O)c(C(=O)c2coc(=N)c(C(=O)NC(C)C)c2)c1`, the AC50 was 22.1 µM.

As for `CN(Cc1c(C(=O)N/N=C/c2ccc(F)cc2)nnn1-c1nonc1N)C1CCCCC1`, the AC50 is > 30 µM (inactive).

As for `CCc1c(C)c(C#N)c2nc3ccccc3n2c1NCc1ccccn1`, the concentration at half-maximal activity (AC50) is 16.8 µM.

With `CCc1nnc(NC(=O)CCc2nc(C3=CCN(C)CC3)no2)s1`, the AC50 was > 30 µM (inactive).

Turning to `O=[N+]([O-])c1cccc(-c2ccn[nH]2)c1`, the AC50 is > 30 µM (inactive).

`CCOc1ccc(Nc2nc(N)c3ccccc3n2)cc1`: the AC50 was 31.2 µM.

For `CC1CCN(Cc2c(C(=O)N/N=C/c3cccc(Cl)c3)nnn2-c2nonc2N)CC1`, the concentration at half-maximal activity (AC50) is 2.73 µM.

Consider `O=C(NCCN1CCc2ccccc2C1)Nc1ccc(F)cc1`, for which the AC50 is > 30 µM (inactive).

As for `COc1ccccc1N1C(=O)C2C(c3ccccc3F)NN(C(=O)c3ccc(C)cc3)C2C1=O` (configuration not stated), the AC50 is > 30 µM (inactive).

In the case of `c1cc2[nH]snc2c2nc(C3CC3)nc12`, the AC50 was 20.8 µM.

For the molecule `O=C(CSCCc1ccccn1)Nc1ccccn1`, the AC50 was > 30 µM (inactive).

`Cc1ccccc1CNC(=O)c1cc(COc2ccc(F)cc2F)on1`: the AC50 was > 30 µM (inactive).

In the case of `CCn1c2ccc(F)cc2c2nc3ccccc3nc21`, the AC50 is > 30 µM (inactive).

Take `COc1ccccc1Nc1nc2c(s1)CCC2`: the AC50 is > 30 µM (inactive).

On to `CCOc1ccc(C(=O)c2cnc3ccccc3c2N2CCN(CC)CC2)cc1`, for which the AC50 was > 30 µM (inactive).

With `Cc1cc(C(=O)CN(Cc2ccc(F)cc2)S(=O)(=O)c2ccc3c(c2)OCCO3)c(C)n1C`, the AC50 is > 30 µM (inactive).

With `COc1ccc2nc(NC(=O)CCc3cc(OC)c(OC)c(OC)c3)sc2c1`, the AC50 was 7.29 µM.

Regarding `CC(=O)Nc1ncc(Cc2cccc(Cl)c2Cl)s1`, the AC50 is > 30 µM (inactive).

Regarding `CC(=O)c1cc(-c2ccc(F)cc2)n(CCC(=O)NC(C)(C)C)c1C`, the AC50 was > 30 µM (inactive).

For `Cc1c(C(=O)N2CCOCC2)oc2ccc(S(=O)(=O)N3CCCC3)cc12`, the AC50 is > 30 µM (inactive).

For the molecule `O=C(N/N=C/c1ccccn1)c1cccc(NC(=O)c2ccccc2Cl)c1`, the AC50 is 15.9 µM.

For the molecule `COc1cccc(/C=C2\SC(=O)NC2=O)c1OCc1ccc(C(=O)O)cc1`, the AC50 is 26.9 µM.

As to `OCc1nnn(-c2ccccc2)c1CO`, the AC50 is > 30 µM (inactive).

As to `CCn1ccc(C(=O)Nc2ccsc2C(=O)OC)n1`, the AC50 was 30.8 µM.

Turning to `O=C(CCn1[nH]c(=O)c2ccccc2c1=O)N1CCOCC1`, the AC50 was > 30 µM (inactive).

For `Cc1ccccc1CSc1nnc(-c2ccncc2)n1C`, the AC50 was > 30 µM (inactive).

Consider `COc1ccc(NC(=O)CN(C)C2CCCCC2)c([N+](=O)[O-])c1`, for which the AC50 is > 30 µM (inactive).

In the case of `COc1cc(SC)ccc1C(=O)Nc1nc(C)cc(C)n1`, the AC50 was > 30 µM (inactive).

Turning to `CC(=O)c1sc(Nc2cccc(C)c2)nc1C`, the AC50 was > 30 µM (inactive).

Consider `O=C1CCCC2=C1C(c1ccc(Br)cc1)c1c([nH]c(=S)[nH]c1=O)N2` (configuration not stated), for which the AC50 was > 30 µM (inactive).

Consider `NS(=O)(=O)c1ccc(N=Nc2ccc(=O)[nH]c2O)cc1`, for which the half-maximal activity concentration (AC50) is 6.56 µM.

For the molecule `Cc1ccc(N(CC(O)CN2CCCCC2)S(=O)(=O)c2ccccc2)cc1` (configuration not stated), the AC50 is > 30 µM (inactive).

As to `COc1ccccc1C(=O)NNC(=O)c1cccc(Br)c1`, the AC50 is > 30 µM (inactive).

Regarding `COCCCNc1nc2nonc2nc1N1C[C@H]2CC[C@H]1C2`, the AC50 is > 30 µM (inactive).

For the molecule `Cc1noc(C)c1COc1ccc2ccc(=O)oc2c1`, the AC50 is > 30 µM (inactive).

Consider `Cc1nn(-c2ccccc2)c(C)c1/C=C/C(=O)OCC(=O)Nc1ccc(C(N)=O)cc1`, for which the AC50 was > 30 µM (inactive).

Consider `COc1ccc(CC(=O)Nc2ccc(-c3cn4ccccc4n3)cc2)cc1OC`, for which the AC50 was > 30 µM (inactive).

On to `COC(=O)CCCNc1ncccc1[N+](=O)[O-]`, for which the AC50 is > 30 µM (inactive).

As for `COc1cccc(/C=N/NC(=O)c2nnn(-c3nonc3N)c2-c2cccs2)c1`, the AC50 is 0.899 µM.

`O=c1c(O)cccc2cc(O)c(O)c(O)c12`: the AC50 was 21.1 µM.

For `Cc1cc(O)c(Oc2cc(C)cc(O)c2O)c(O)c1`, the AC50 was > 30 µM (inactive).

As to `Cc1ccc2nc(C3CCCCC3)[nH]c2c1`, the AC50 was > 30 µM (inactive).

Turning to `COc1ccccc1C(=O)Nc1nc(C)cc(C)n1`, the AC50 is > 30 µM (inactive).

`CCOC(=O)N1CC=C2C(C#N)=C(N)C(C#N)(C#N)[C@H](c3cccs3)[C@H]2C1`: the AC50 was 22.1 µM.

As for `COc1ccc(C(=O)NC(=O)CSc2nnc(-c3ccco3)n2-c2ccccc2)cc1`, the AC50 is > 30 µM (inactive).

As to `CC(C)c1onc(C(=O)N(C)C2CCCCC2)c1[N+](=O)[O-]`, the AC50 was > 30 µM (inactive).

As for `Nc1nc(Nc2cccc(F)c2)nc(NCc2ccco2)c1[N+](=O)[O-]`, the half-maximal activity concentration (AC50) is 4.08 µM.

As for `S=C(Nc1ccc(Nc2ccccc2)cc1)Nc1ccccn1`, the AC50 is > 30 µM (inactive).

As for `COc1ccccc1N=c1oc2c(OC)cccc2cc1C(=O)NCc1ccco1`, the AC50 was > 30 µM (inactive).

For `COc1ccc(OC)c(/C=C2\S/C(=N/NC(=O)c3ccc4ccccc4c3)NC2=O)c1`, the AC50 was > 30 µM (inactive).

As to `C/C(=C/c1oc2ccc(O)cc2c1[N+](=O)[O-])N(C)C`, the AC50 is > 30 µM (inactive).

Turning to `CCOC(=O)c1nnn(-c2nonc2N)c1-c1ccc(F)cc1`, the AC50 was 16.1 µM.

With `CC1=NN(c2nc(-c3ccc(Cl)cc3)cs2)C(=O)C1`, the AC50 is > 30 µM (inactive).

In the case of `O=C(CSc1ncccc1-c1nc2ccccc2[nH]1)NCc1ccco1`, the AC50 was > 30 µM (inactive).

Consider `COc1ccc2c3c(cccc13)C(=O)CC2`, for which the AC50 is > 30 µM (inactive).

As to `Cc1c(Nc2ncccc2C(=O)O)cccc1C(F)(F)F`, the AC50 was > 30 µM (inactive).

With `CCN(C(=O)CN1CC=C(c2ccccc2)CC1)c1c(N)n(Cc2ccccc2)c(=O)[nH]c1=O`, the AC50 was > 30 µM (inactive).

Regarding `Cc1cc2nc(-c3cccnc3SCC(=O)NC3CC3)[nH]c2cc1C`, the AC50 is > 30 µM (inactive).

Regarding `Cc1c2c(n3c(nc4ccccc43)c1C#N)N(CCN(C)C)CC2`, the concentration at half-maximal activity (AC50) is 21.7 µM.

Consider `Cc1cc(C)c(/C=N/NC(=O)c2nnn(-c3nonc3N)c2CN2CCC(C)CC2)c(C)c1`, for which the AC50 was > 30 µM (inactive).

With `CCOC(=O)c1cc[nH]c1C`, the AC50 was > 30 µM (inactive).

For `Oc1ccc(/C=N/Nc2nccnc2Cl)cc1`, the AC50 is 24.8 µM.

With `Cc1csc(NC(=O)C2CCCN(S(=O)(=O)c3cnc[nH]3)C2)n1` (configuration not stated), the AC50 is > 30 µM (inactive).

As to `COc1cc(/C=C2\S/C(=N/S(=O)(=O)Cc3ccccc3)NC2=O)c([N+](=O)[O-])cc1OC`, the AC50 was > 30 µM (inactive).

Consider `COc1ccc(Nc2sc(C(=O)c3ccc(Cl)cc3)c(N)c2C(=O)Nc2ccccc2OC)cc1`, for which the AC50 is > 30 µM (inactive).

In the case of `Nc1nonc1-n1nnc(C(=O)N/N=C/c2ccc(F)cc2)c1-c1cccs1`, the AC50 was 1.05 µM.

As for `CCC(=N\NC(=O)COc1ccccc1OC)/C(CC)=N/NC(=O)COc1ccccc1OC`, the AC50 was > 30 µM (inactive).

For `Nc1c(O)ccc2c1C(=O)c1ccccc1C2=O`, the AC50 is 18.7 µM.

For `CCN1CCN(c2nc(N)c([N+](=O)[O-])c(Nc3ccc(C)c(C)c3)n2)CC1`, the AC50 was > 30 µM (inactive).

Consider `N#C/C(=N\Nc1ccccc1)C(N)=S`, for which the AC50 was > 30 µM (inactive).

For the molecule `O=c1c2ccccc2oc2ccc(NCCCn3ccnc3)cc12`, the AC50 is > 30 µM (inactive).

On to `CC(=O)c1ccc(N=Nc2c(C)[nH][nH]c2=O)cc1`, for which the AC50 was 24.5 µM.

With `CCOc1ccc2ncc(S(=O)(=O)c3ccccc3)c(N3CCN(c4ccc(OC)cc4)CC3)c2c1`, the AC50 is > 30 µM (inactive).

Turning to `CC(C)OC(=O)c1nnn(-c2nonc2N)c1CN1CCCCCC1`, the AC50 was > 30 µM (inactive).

As to `NC(=O)Cn1cc(/C=N\NS(=O)(=O)c2cccc([N+](=O)[O-])c2)c2ccccc21`, the AC50 was > 30 µM (inactive).

Consider `O=[N+]([O-])c1cnc2nc(-c3ccncc3)nn2c1O`, for which the half-maximal activity concentration (AC50) is 8.27 µM.
